Patent US20230235301A1, “Compounds and Methods for Treating, Ameliorating, or Preventing Herpes Ocular Keratitis” (THE TRUSTEES OF THE UNIVERSITY OF PENNSYLVANIA, priority 2020, published 2023)
Read-outs that look alike come from different tables or passages of the source. Positions of bridges follow the written chain, without caps; N, C: chain ends. Non-standard residues stand in square brackets, D forms with d. Residues, ends and D or L forms follow the SMILES beside them. No end group written: not given here. S5 = C=CCCC[C@](C)(N)C(=O)O

Columns and labels:
HSV-1 = test: microbe, parasite or virus in culture; assay type: cell-based
Description: Cells with ~90% confluence in 48-well plates were infected by absorbing virus (~100 PFU/well) for 1 h in 100 µL growth medium followed by adding 200 µL culture medium containing DMSO vehicle or serially diluted peptides or Acyclovir (Tocris Bioscience-Fisher Scientific) to each well of the plate. DMSO was maintained at 1% throughout the treatment. Cells were subsequently fixed and stained with 300 µL PBS containing 4% formaldehyde and 0.2% crystal violet overnight at room temperature. HSV-1 plaques were quantified at ~55 h post-infection of Vero cells. VV (WR strain) infection of BSC-1 cells was analyzed for plaque formation after 24 h. The plaque reduction assays were performed in duplicate and independently repeated twice. Cells were stained, and plaques counted under a dissecting microscope. Data were plotted on the GraphPad Prism.
Standard viral plaque reduction assays were conducted in Vero cells to determine if any of the five stapled peptides (S-pep1/3/4/7/8) that were able to block processive DNA synthesis, could also block HSV-1 infection. To minimize possible interference of HSV-1 cell attachment and entry by the peptides, cells were first infected by absorbing the virus for 1 h, followed by treatment with peptides at serial dilutions. […] The EC50 values of both S-pep3 and S-pep8 were approximately 100 µM (FIG. 15C and FIG. 15F). Additionally, S-pep4 was toxic at 12.5 µM, which precluded further optimization.

[1] = target: HSV-1 UL30 DNA Polymerase and UL42 Processivity Factor (Human herpesvirus 1, UniProt P10226); test: In vitro processive DNA synthesis assay (ELISA-based Rapid Plate Assay); assay type: biochemical; conditions: for IC50, µM* (HSV1 UL30+UL42): inhibition of HSV-1 processive DNA synthesis in vitro by UL30 and UL42
Description: The assay was performed by the enzyme-linked immunosorbent assay (ELISA)-based Rapid Plate Assay (J. Virol. Methods 2000, 88:219-225; Methods Mol. Biol. 2005, 292:481-492; J. Med. Chem. 2008, 51:6563-6570), using in vitro translated viral DNA polymerase and processivity factor.
Briefly, the assay comprised a 100-nucleotide single-stranded DNA template that has biotin covalently linked to the 5′ end. The biotin-labeled oligonucleotide template was immobilized onto streptavidin, which was coated onto each well of a micro-titer plate. An oligonucleotide primer (15mer) was annealed to the 3′ end of the biotin-labeled DNA template. HSV-1 UL-30 and HSV-1 UL-42 (either in vitro translated or purified) were added and incubated with serial dilutions of the stapled peptides. DNA synthesis was measured by direct incorporation of the 4 dNTPs as well as the signal nucleotide, digoxigenin-dUTP (1:5, dig-dUTP:dTTP). A peroxidase-conjugated anti-digoxigenin antibody that recognizes the newly synthesized DNA generated a colorimetric reaction that was quantified with a plate reader at 405 nm.
In certain non-limiting embodiments, the shown staples (or tethers), which provide rigidity, had linked-spacing of one full turn (i,i+4) or two full turns (i,i+7) of the helix to stay in helical register (3.6 amino acids/turn). In other embodiments, the staple was on the solvation side of the helix. Residues on the opposite side contact the PF target protein UL42. These UL42 residues are D63, R64 and K289 (FIGS. 13A-13C). Hydrogen bonds between residues of UL42 and C-Pol are shown as dotted lines. The IC50 values recited herein were quantitated using the assay described in U.S. Pat. No. 6,204,028, which is incorporated herein in its entirety by reference (FIG. 14).

[2] = target: T1, HSV-1 Processivity Factor (UL42) (HSV-1 (strain KOS), UniProt P10226 1-488); test: cell-based or functional assay
T1 sequence: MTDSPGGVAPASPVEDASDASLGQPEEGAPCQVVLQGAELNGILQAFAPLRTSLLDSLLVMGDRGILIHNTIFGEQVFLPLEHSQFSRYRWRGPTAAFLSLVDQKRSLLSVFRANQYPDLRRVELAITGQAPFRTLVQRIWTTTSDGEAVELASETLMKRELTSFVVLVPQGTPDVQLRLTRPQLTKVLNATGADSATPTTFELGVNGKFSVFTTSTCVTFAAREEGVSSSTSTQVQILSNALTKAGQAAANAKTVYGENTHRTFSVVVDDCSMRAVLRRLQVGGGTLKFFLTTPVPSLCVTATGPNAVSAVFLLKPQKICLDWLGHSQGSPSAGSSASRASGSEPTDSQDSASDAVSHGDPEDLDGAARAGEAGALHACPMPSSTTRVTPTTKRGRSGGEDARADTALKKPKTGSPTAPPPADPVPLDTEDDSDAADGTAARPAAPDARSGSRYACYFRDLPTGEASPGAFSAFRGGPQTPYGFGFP

## CC(=O)N[C@@H](C)C(=O)N[C@@H](CCC(=O)O)C(=O)N[C@@]1(C)CCCC=CCCC[C@@](C)(C(=O)N[C@@H](CC(C)C)C(=O)N[C@@H](Cc2c[nH]cn2)C(=O)N[C@@H](CCCNC(=N)N)C(=O)N[C@@H](C)C(=O)N[C@@H](Cc2ccccc2)C(=O)N[C@@H](CC(=O)O)C(=O)N[C@H](C(=O)N[C@@H](CC(C)C)C(=O)N[C@@H](C)C(=O)O)[C@@H](C)O)NC(=O)[C@H](CCCNC(=N)N)NC(=O)[C@H](CCCNC(=N)N)NC(=O)[C@H]([C@@H](C)O)NC1=O [S-pep3, Ac-AEXTRRXLHRAFDTLA] (Ac-AE[S5]TRR[S5]LHRAFDTLA-OH; staple 3-7; C-terminus assumed)
HSV-1; 1 h
  EC50: ~100 µM

## CC(=O)N[C@@]1(C)CCCC=CCCC[C@@](C)(C(=O)N[C@@H](CC(C)C)C(=O)N[C@@H](Cc2c[nH]cn2)C(=O)N[C@@H](CCCNC(=N)N)C(=O)N[C@@H](C)C(=O)N[C@@H](Cc2ccccc2)C(=O)N[C@@H](CC(=O)O)C(=O)N[C@H](C(=O)N[C@@H](CC(C)C)C(=O)N[C@@H](C)C(=O)O)[C@@H](C)O)NC(=O)[C@H](CCCNC(=N)N)NC(=O)[C@H](CCCNC(=N)N)NC(=O)[C@H]([C@@H](C)O)NC1=O [S-pep1, Ac-XTRRXLHRAFDTLA] (Ac-[S5]TRR[S5]LHRAFDTLA-OH; staple 1-5; C-terminus assumed)
[1]
  IC50, µM* (HSV1 UL30+UL42): successfully inhibits
HSV-1; 1 h
  EC50: 43 µM

## CSCC[C@@H]1NC(=O)[C@H](CCCNC(=N)N)NC(=O)[C@H](CCCNC(=N)N)NC(=O)[C@@](C)(NC(C)=O)CCCC=CCCC[C@@](C)(C(=O)N[C@@H](Cc2c[nH]cn2)C(=O)N[C@@H](CCCNC(=N)N)C(=O)N[C@@H](C)C(=O)N[C@@H](Cc2ccccc2)C(=O)N[C@@H](CC(=O)O)C(=O)N[C@H](C(=O)N[C@@H](CC(C)C)C(=O)N[C@@H](C)C(=O)O)[C@@H](C)O)NC1=O [S-pep5, Ac-XRRMXHRAFDTLA] (Ac-[S5]RRM[S5]HRAFDTLA-OH; staple 1-5)
[1]
  IC50: > 200 µM
  IC50, µM* (HSV1 UL30+UL42): failed to inhibit

## CSCC[C@H](NC(=O)[C@H](CCCNC(=N)N)NC(=O)[C@H](CCCNC(=N)N)NC(=O)[C@@H](NC(=O)[C@H](CCC(=O)O)NC(C)=O)[C@@H](C)O)C(=O)N[C@@H](CC(C)C)C(=O)N[C@@H](Cc1c[nH]cn1)C(=O)N[C@@H](CCCNC(=N)N)C(=O)N[C@@H](C)C(=O)N[C@@H](Cc1ccccc1)C(=O)N[C@@H](CC(=O)O)C(=O)N[C@H](C(=O)N[C@@H](CC(C)C)C(=O)N[C@@H](C)C(=O)O)[C@@H](C)O [N-pep, Ac-ETRRMLHRAFDTLA, reference compound]
[1]
  IC50: > 200 µM
[1]; listed as Non-stapled
  IC50, µM* (HSV1 UL30+UL42): no inhibition
[1]; listed as native (unstapled) C-Pol peptide
  IC50, µM* (HSV1 UL30+UL42): fails to inhibit
HSV-1; 1 h
  EC50: > 200 µM

## CC(=O)N[C@@H](CCC(=O)O)C(=O)N[C@H](C(=O)N[C@@H](CCCNC(=N)N)C(=O)N[C@@H](CCCNC(=N)N)C(=O)N[C@@]1(C)CCCC=CCCC[C@@](C)(C(=O)N[C@@H](Cc2ccccc2)C(=O)N[C@@H](CC(=O)O)C(=O)N[C@H](C(=O)N[C@@H](CC(C)C)C(=O)N[C@@H](C)C(=O)O)[C@@H](C)O)NC(=O)[C@H](CCCNC(=N)N)NC(=O)[C@H](Cc2c[nH]cn2)NC(=O)[C@H](CC(C)C)NC1=O)[C@@H](C)O [S-pep7, Ac-ETRRXLHRXFDTLA] (Ac-ETRR[S5]LHR[S5]FDTLA-OH; staple 5-9; C-terminus assumed)
HSV-1; 1 h
  EC50: 35.5 µM

## CSCC[C@H](NC(=O)[C@H](CCCNC(=N)N)NC(=O)[C@H](CCCNC(=N)N)NC(=O)[C@@H](NC(=O)[C@H](CCC(=O)O)NC(C)=O)[C@@H](C)O)C(=O)N[C@@H](CC(C)C)C(=O)N[C@@H](Cc1c[nH]cn1)C(=O)N[C@@]1(C)CCCC=CCCC[C@@](C)(C(=O)N[C@@H](CC(C)C)C(=O)N[C@@H](C)C(=O)O)NC(=O)[C@H](CC(=O)O)NC(=O)[C@H](Cc2ccccc2)NC(=O)[C@H](C)NC1=O [S-pep8, Ac-ETRRMLHXAFDXLA] (Ac-ETRRMLH[S5]AFD[S5]LA-OH; staple 8-12; C-terminus assumed)
HSV-1; 1 h
  EC50: ~100 µM

## Nc1nc2c(ncn2COCCO)c(=O)[nH]1 [Acyclovir, reference compound]
HSV-1; Human alphaherpesvirus 1, Vero cells, peptides added after 1 h virus absorption, plaques counted at ~55 h, read-out: EC50, inhibition of HSV-1 plaque formation
  EC50: 0.81 µM

## CC(=O)N[C@@]1(C)CCCC=CCCC[C@@](C)(C(=O)N[C@@H](CC(C)C)C(=O)N[C@@H](Cc2c[nH]cn2)C(=O)N[C@@H](CCCNC(=N)N)C(=O)N[C@@H](C)C(=O)N[C@@H](Cc2ccccc2)C(N)=O)NC(=O)[C@H](CCCNC(=N)N)NC(=O)[C@H](CCCNC(=N)N)NC(=O)[C@H]([C@@H](C)O)NC1=O [S-pep2, Ac-XTRRXLBRAF-NH2] (Ac-[S5]TRR[S5]LHRAF-NH2; staple 1-5)
[1]
  IC50: > 200 µM

B1: S-pep7 (peptide)
peptide: Ac-ETRR[S5]LHR[S5]FDTLA
modifications: staple 5-9
[2]
  IC50, µM (HSV1 UL30+UL42); HSV-1 DNA synthesis inhibition: 5.5 µM

B2: S-pep2 (peptide)
peptide: Ac-[S5]TRR[S5]LHRAF-NH2
modifications: staple 1-5
[2]
  IC50, µM (HSV1 UL30+UL42); HSV-1 DNA synthesis inhibition: > 200 µM

B3: S-pep7A (peptide)
peptide: Ac-VTRR[S5]LHR[S5]FDTLA
modifications: staple 5-9
[2]
  IC50, µM (HSV1 UL30+UL42); HSV-1 DNA synthesis inhibition: 1.7 µM

B4: S-pep8 (peptide)
peptide: Ac-ETRRMLH[S5]AFD[S5]LA
modifications: staple 8-12
[2]
  IC50, µM (HSV1 UL30+UL42); HSV-1 DNA synthesis inhibition: 20.7 µM

B5: S-pep1 (peptide)
peptide: Ac-[S5]TRR[S5]LHRAFDTLA
modifications: staple 1-5
[2]
  IC50, µM (HSV1 UL30+UL42); HSV-1 DNA synthesis inhibition: 12 µM

B6: S-pep3 (peptide)
peptide: Ac-AE[S5]TRR[S5]LHRAFDTLA
modifications: staple 3-7
[2]
  IC50, µM (HSV1 UL30+UL42); HSV-1 DNA synthesis inhibition: 12.7 µM

B7: S-pep7D (peptide)
peptide: Ac-RRTRR[S5]LHR[S5]FDTLA
modifications: staple 6-10
[2]
  IC50, µM (HSV1 UL30+UL42); HSV-1 DNA synthesis inhibition: 2 µM

B8: S-pep7C (peptide)
peptide: Ac-RTRR[S5]LHR[S5]FDTLA
modifications: staple 5-9
[2]
  IC50, µM (HSV1 UL30+UL42); HSV-1 DNA synthesis inhibition: 1.7 µM

B9: S-pep7B (peptide)
peptide: Ac-VVTRR[S5]LHR[S5]FDTLA
modifications: staple 6-10
[2]
  IC50, µM (HSV1 UL30+UL42); HSV-1 DNA synthesis inhibition: 1 µM

B10: S-pep5 (peptide)
peptide: Ac-[S5]RRM[S5]HRAFDTLA
modifications: staple 1-5
[2]
  IC50, µM (HSV1 UL30+UL42); HSV-1 DNA synthesis inhibition: > 200 µM
